Assay results taken from patent US11723899B2, “ALK2 inhibitors for the treatment of anemia” (Incyte Corporation, priority 2020, dated 2023).

Experiments:
[1] = Phase 1a single-dose, dose-escalation safety and tolerability study in healthy adult participants; type: in vivo, human; details: single oral dose 10, 25, 50, 100 and 175 mg
Text: A Phase 1a, double-blind, randomized, placebo-controlled, single-dose, dose-escalation and food-effect study is being conducted with 2-amino-N-(4-hydroxybicyclo-[2.2.2]octan-1-yl)-5-(4-((1R,5S)-3-(tetrahydro-2H-pyran-4-yl)-3-azabicyclo-[3.1.0]hexan-1-yl)phenyl)nicotinamide (“Compound A”) in order to assess the safety, tolerability, and pharmacokinetics (PK) of Compound A when administered orally as a single dose to healthy adult participants.
Compound A has been administered as a single dose at the dose levels of 10 mg, 25 mg, 50 mg, 100 mg, and 175 mg once to 9 healthy participants at each dose level.

[2] = 28-day repeat dose toxicity study in rats; type: in vivo
Text: (§1) Iron parameters and liver functional tests will be monitored clinically.
(§2) Potential increases in heart rate, skin/hair, and the gastrointestinal track will also be monitored clinically.

[3] = 28-day repeat dose toxicity study in dogs; type: in vivo
Text: as §1, §2

[4] = system: mouse adenine-induced chronic kidney disease model; assay: Mouse adenine-induced chronic kidney disease (anemia) model; type: in vivo, male C57BL/6 mice
Text: The anemia associated with chronic kidney disease has been associated with the hepatic hormone hepcidin (Akchurin et al., Am. J. Physiol. Renal Physiol., 2016). Therefore, reduction of hepcidin levels through inhibition of ALK2 would be a useful therapeutic strategy to combat this aspect of the disease. To test this hypothesis, a murine model of chronic kidney disease that also leads to anemia was used. Orally administered adenine metabolizes to 2,8-dihydroxyadenine, which crystalizes in the tubules of the kidney. Build-up of this metabolite causes kidney injury (nephropathy), inflammation, and subsequently anemia. Mice (typically male C57B/6 mice age 6-10 weeks) are administered adenine (maximum dose of 50 mg/kg QD) by oral gavage for 28 days. During this time, mice are monitored weekly for changes in kidney function and hematology. Anemia onset is tracked by blood draws to measure complete blood count (CBC), which includes red blood cell count, hemoglobin levels, and hematocrit. Drops in these blood parameters would be indicative of anemia. […] Changes in kidney function are detectable within 10 days of adenine administration (Jia et al., BMC Nephrology, 2013; Rahman et al., PLoS One, 2018), and are monitored by analysis of plasma levels of creatinine and blood urea nitrogen (BUN) (Rahman et al., PLoS One, 2018). Increases in plasma creatinine, plasma BUN, and urine protein (>2 fold) are indicative of kidney injury. Body weights are also monitored weekly as a sign of overall fitness.
To investigate the ability of an ALK2 inhibitor to alleviate the anemia brought on by kidney injury, male C57BL/6 mice (Charles River Laboratories) were administered oral adenine (45 mg/kg QD) for 28 days. A cohort of mice were also administered vehicle solution to maintain a normal blood level baseline for comparison (n=10). Mice were monitored weekly for changes in blood parameters by CBC, and for changes in weight. Starting at 14 days post first administration of adenine, mice receiving adenine were dosed with either 30 mg/kg QD (n=8) or 100 mg/kg QD (n=9) Compound A, or vehicle control (n=10). Mice were dosed for 21 days, which includes […] after the cessation of adenine administration. Final analyses were performed one week after the last dose of Compound A, 42 days after adenine administration began. Shown in FIG. 1 are results from this experiment.
A study was performed to investigate the effects of starting the dosing of Compound A later in kidney disease progression at the point when hepcidin levels increase, at […]. Male C57BL/6 mice were administered oral adenine (45 mg/kg QD) for 28 days. A cohort of mice were also administered vehicle solution to maintain a normal blood level baseline for comparison (n=8). Mice were monitored weekly for changes in blood parameters by CBC, and for changes in weight. The mice receiving adenine were dosed with either 30 mg/kg QD (n=8) or 100 mg/kg QD (n=8) Compound A, or vehicle control (n=8). Compound A dosing began at either 14 or 21 days after adenine administration began and continued for 21 days, followed by one more week until blood analysis. The dosing that began on day 14 was termed “prophylactic” as it began before the increase in hepcidin occurs. Dosing that began on day 21 was termed “concomitant” as the dosing coincided with hepcidin level increase. […] Overall, Compound A was able to improve the anemia arising in this model. […]

## Nc1ncc(-c2ccc([C@@]34C[C@@H]3CN(C3CCOCC3)C4)cc2)cc1C(=O)NC12CCC(O)(CC1)CC2 [Compound A, 2-amino-N-(4-hydroxybicyclo-[2.2.2]octan-1-yl)-5-(4-((1R,5S)-3-(tetrahydro-2H-pyran-4-yl)-3-azabicyclo-[3.1.0]hexan-1-yl)phenyl)nicotinamide]
[1]; 9 healthy participants per dose level
  severe adverse events (SAEs): No severe adverse events (SAEs) have been observed
[1]; all dose levels
  severity of adverse events (AEs): mild and self-limiting
[2]; at NOAEL
  findings at the no observed adverse effect level (NOAEL): slight increases in iron staining in the liver with no associated increase in liver function tests (LFTs) or microscopic findings in the liver
[2]; doses above NOAEL
  liver findings at higher doses: increases in serum alanine aminotransferase (ALT) and aspartate aminotransferase (AST) and microscopic findings in the liver
[2]; higher doses, species not given
  additional adverse findings considered related to inhibition of ALK3: mucosal hypertrophy and hyperplasia in the gastrointestinal tract with associated changes in the mesenteric lymph nodes, anagen phase arrest of hair follicles, and further alterations in iron metabolism
[3]; 28-day repeat dose, at NOAEL
  findings at the no observed adverse effect level (NOAEL): slight increases in iron staining in the liver with no associated increase in liver function tests (LFTs) or microscopic findings in the liver
[3]; 28-day repeat dose, doses above NOAEL
  liver findings at higher doses: increases in serum alanine aminotransferase (ALT) and aspartate aminotransferase (AST) and microscopic findings in the liver
[3]; 28-day repeat dose, higher doses
  additional adverse findings considered related to inhibition of ALK3: mucosal hypertrophy and hyperplasia in the gastrointestinal tract with associated changes in the mesenteric lymph nodes, anagen phase arrest of hair follicles, and further alterations in iron metabolism
[3]; higher doses
  heart rate: increased heart rates
[4]; 100 mg/kg QD, prophylactic dosing (from day 14), FIG. 2
  hemoglobin levels relative to normal range: returned hemoglobin levels that are within the normal range
[4]; 30 or 100 mg/kg QD for 21 days from day 14, vs adenine without Compound A, FIG. 1 right
  body weights: increased weights
[4]; 30 or 100 mg/kg QD for 21 days starting day 14 of adenine, FIG. 2 left
  hemoglobin levels, prophylactic dosing: dose dependent increase in hemoglobin levels
[4]; 30 or 100 mg/kg QD for 21 days starting day 21 of adenine, FIG. 2 right
  hemoglobin levels, concomitant dosing: significant increases in hemoglobin levels that were dose dependent
[4]; day 42, 30 or 100 mg/kg QD for 21 days starting 14 days after first adenine (45 mg/kg QD, 28 days), vs adenine + vehicle, FIG. 1 left
  hemoglobin (HGB) levels: dose-dependently improved hemoglobin (HGB) levels
